Where two headings read alike, the source gives them in different places.
Tests used:
[1] = test system: AMP-evolved E. coli lines; details: ref Spohn et al 2019, cited from earlier work
Text: Supplement 41467_2019_13618_MOESM13_ESM.xlsx, sheet "Figure 6 and S15" | column: A comprehensive dataset of antimicrobial susceptibility of AMP-adapted lines to antimicrobial peptides (AMPs).

bacterial membrane = details: literature mining; ref superscript numbers in the cell, listed in Supplementary Data 7 sheet References; cited from earlier work
Text: Supplement 41467_2019_13618_MOESM10_ESM.xlsx, sheet "AMP details" | column: Pore formation

[2] = test system: AMP-evolved E. coli lines; assay: Cross-resistance / collateral sensitivity: relative MIC change of 38 laboratory-evolved AMP-resistant lines vs parental strain; type: cell-based, Escherichia coli; details: measured here
Text: Here, we extended this dataset by measuring susceptibility changes of the same evolved lines to four additional AMPs using identical protocols to represent AMPs from all four clusters (Supplementary Fig. 15a, see also Methods). Overall, the resulting dataset of susceptibility profiles provides a comprehensive map of cross-resistance and collateral sensitivity between AMPs representing various modes of action.
To characterize the cross-resistance of the 38 E. coli lineages we obtained relative MIC changes that are, the MIC values of the evolved lines compared to these of the parental strain, from two data sources. First, we used already measured relative MIC changes from Spohn et al. Supplementary data 4[20]. […] Second, we extended this dataset by measuring the relative MIC changes of the same evolved lines to four additional AMPs using identical protocol. […] In this way, AMPs from each cluster were represented in the dataset.
Supplementary Figure 15. […] Relative change in MIC was determined for each evolved line by comparing its MIC to the ancestral cell line (control). […] CAP18-adaped lines were not included in the analysis because CAP18 is known as a membrane-targeting AMP in the literature. c, Cross-resistance interactions are enriched between membrane-targeting AMPs that are in the same chemical-genetic clusters (i.e. AMP pairs within C1 and within C2 clusters) (Significant difference: ** P = 0.0082 from two-sided Fisher’s exact test, n = 61 and 62 for within cluster and between clusters, respectively). […] Source data are provided as a Source Data file.

[3] = test system: E. coli gene overexpression; details: gene ptrB overexpressed; ref 2 (Mattiuzzo et al. 2014); cited from earlier work
Text: Supplement 41467_2019_13618_MOESM1_ESM.docx, table 1: Supplementary Table 1. Collected examples of E. coli gene overexpression from the literature as a confirmation of our chemical-genetic screen results. | column: Overexpression phenotype

RWCFRVCYRGICYRKCR [TPII, Tachyplesin II, antimicrobial peptide from Japanese horseshoe crab; disrupts cell membrane; cluster C1]
Relative change in MIC (MIC of the AMP-adpated line / MIC of the ancestral strain) ([1]; AMP-adapted line BAC5_3): 1 | Relative change in MIC (MIC of the AMP-adpated line / MIC of the ancestral strain) ([1]; AMP-adapted line BAC5_5): 1 | Relative change in MIC (MIC of the AMP-adpated line / MIC of the ancestral strain) ([1]; AMP-adapted line BAC5_7): 1.1 | Relative change in MIC (MIC of the AMP-adpated line / MIC of the ancestral strain) ([1]; AMP-adapted line BAC5_10): 1.1 | Relative change in MIC (MIC of the AMP-adpated line / MIC of the ancestral strain) ([1]; AMP-adapted line CAP18_2): 1.1 | Relative change in MIC (MIC of the AMP-adpated line / MIC of the ancestral strain) ([1]; AMP-adapted line CAP18_5): 1 | Relative change in MIC (MIC of the AMP-adpated line / MIC of the ancestral strain) ([1]; AMP-adapted line CAP18_6): 1 | Relative change in MIC (MIC of the AMP-adpated line / MIC of the ancestral strain) ([1]; AMP-adapted line CAP18_8): 1.1 | Relative change in MIC (MIC of the AMP-adpated line / MIC of the ancestral strain) ([1]; AMP-adapted line CAP18_10): 1 | Relative change in MIC (MIC of the AMP-adpated line / MIC of the ancestral strain) ([1]; AMP-adapted line HBD3_3): 1.2 | Relative change in MIC (MIC of the AMP-adpated line / MIC of the ancestral strain) ([1]; AMP-adapted line HBD3_6): 1.2 | Relative change in MIC (MIC of the AMP-adpated line / MIC of the ancestral strain) ([1]; AMP-adapted line HBD3_8): 1.2 | Relative change in MIC (MIC of the AMP-adpated line / MIC of the ancestral strain) ([1]; AMP-adapted line HBD3_10): 1.2 | Relative change in MIC (MIC of the AMP-adpated line / MIC of the ancestral strain) ([1]; AMP-adapted line LL37_1): 1.1 | Relative change in MIC (MIC of the AMP-adpated line / MIC of the ancestral strain) ([1]; AMP-adapted line LL37_3): 1.1 | Relative change in MIC (MIC of the AMP-adpated line / MIC of the ancestral strain) ([1]; AMP-adapted line LL37_6): 1 | Relative change in MIC (MIC of the AMP-adpated line / MIC of the ancestral strain) ([1]; AMP-adapted line LL37_7): 1 | Relative change in MIC (MIC of the AMP-adpated line / MIC of the ancestral strain) ([1]; AMP-adapted line LL37_10): 1 | Relative change in MIC (MIC of the AMP-adpated line / MIC of the ancestral strain) ([1]; AMP-adapted line PEX_1): 1.1 | Relative change in MIC (MIC of the AMP-adpated line / MIC of the ancestral strain) ([1]; AMP-adapted line PEX_4): 1.2 | Relative change in MIC (MIC of the AMP-adpated line / MIC of the ancestral strain) ([1]; AMP-adapted line PEX_5): 1.1 | Relative change in MIC (MIC of the AMP-adpated line / MIC of the ancestral strain) ([1]; AMP-adapted line PEX_6): 1 | Relative change in MIC (MIC of the AMP-adpated line / MIC of the ancestral strain) ([1]; AMP-adapted line PEX_7): 1 | Relative change in MIC (MIC of the AMP-adpated line / MIC of the ancestral strain) ([1]; AMP-adapted line PR39_1): 1 | Relative change in MIC (MIC of the AMP-adpated line / MIC of the ancestral strain) ([1]; AMP-adapted line PR39_2): 0.9 | Relative change in MIC (MIC of the AMP-adpated line / MIC of the ancestral strain) ([1]; AMP-adapted line PR39_5): 0.9 | Relative change in MIC (MIC of the AMP-adpated line / MIC of the ancestral strain) ([1]; AMP-adapted line PR39_7): 0.9 | Relative change in MIC (MIC of the AMP-adpated line / MIC of the ancestral strain) ([1]; AMP-adapted line PR39_10): 0.9 | Relative change in MIC (MIC of the AMP-adpated line / MIC of the ancestral strain) ([1]; AMP-adapted line PROA_2): 1.1 | Relative change in MIC (MIC of the AMP-adpated line / MIC of the ancestral strain) ([1]; AMP-adapted line PROA_3): 0.8 | Relative change in MIC (MIC of the AMP-adpated line / MIC of the ancestral strain) ([1]; AMP-adapted line PROA_7): 1 | Relative change in MIC (MIC of the AMP-adpated line / MIC of the ancestral strain) ([1]; AMP-adapted line PROA_8): 1 | Relative change in MIC (MIC of the AMP-adpated line / MIC of the ancestral strain) ([1]; AMP-adapted line PROA_9): 1.1 | Relative change in MIC (MIC of the AMP-adpated line / MIC of the ancestral strain) ([1]; AMP-adapted line PXB_2): 1.1 | Relative change in MIC (MIC of the AMP-adpated line / MIC of the ancestral strain) ([1]; AMP-adapted line PXB_5): 1 | Relative change in MIC (MIC of the AMP-adpated line / MIC of the ancestral strain) ([1]; AMP-adapted line PXB_6): 1.1 | Relative change in MIC (MIC of the AMP-adpated line / MIC of the ancestral strain) ([1]; AMP-adapted line PXB_8): 1 | Relative change in MIC (MIC of the AMP-adpated line / MIC of the ancestral strain) ([1]; AMP-adapted line PXB_10): 1.1 | Pore formation (whether AMP makes pores in the bacterial membrane) (bacterial membrane): Yes1

RFRPPIRRPPIRPPFYPPFRPPIRPPIFPPIRPPFRPPLGPFP [BAC5, Bactenecin 5, antimicrobial peptide from bovine neutrophils; cluster C4]
Relative change in MIC (MIC of the AMP-adpated line / MIC of the ancestral strain) ([2]; AMP-adapted line CAP18_2): 1 | Relative change in MIC (MIC of the AMP-adpated line / MIC of the ancestral strain) ([2]; AMP-adapted line CAP18_5): 0.915 | Relative change in MIC (MIC of the AMP-adpated line / MIC of the ancestral strain) ([2]; AMP-adapted line CAP18_6): 0.915 | Relative change in MIC (MIC of the AMP-adpated line / MIC of the ancestral strain) ([2]; AMP-adapted line CAP18_8): 1 | Relative change in MIC (MIC of the AMP-adpated line / MIC of the ancestral strain) ([2]; AMP-adapted line CAP18_10): 0.915 | Relative change in MIC (MIC of the AMP-adpated line / MIC of the ancestral strain) ([2]; AMP-adapted line HBD3_3): 1 | Relative change in MIC (MIC of the AMP-adpated line / MIC of the ancestral strain) ([2]; AMP-adapted line HBD3_6): 0.9167 | Relative change in MIC (MIC of the AMP-adpated line / MIC of the ancestral strain) ([2]; AMP-adapted line HBD3_8): 1 | Relative change in MIC (MIC of the AMP-adpated line / MIC of the ancestral strain) ([2]; AMP-adapted line HBD3_10): 1 | Relative change in MIC (MIC of the AMP-adpated line / MIC of the ancestral strain) ([2]; AMP-adapted line LL37_1): 0.915 | Relative change in MIC (MIC of the AMP-adpated line / MIC of the ancestral strain) ([2]; AMP-adapted line LL37_3): 1 | Relative change in MIC (MIC of the AMP-adpated line / MIC of the ancestral strain) ([2]; AMP-adapted line LL37_6): 0.915 | Relative change in MIC (MIC of the AMP-adpated line / MIC of the ancestral strain) ([2]; AMP-adapted line LL37_7): 1 | Relative change in MIC (MIC of the AMP-adpated line / MIC of the ancestral strain) ([2]; AMP-adapted line LL37_10): 0.915 | Relative change in MIC (MIC of the AMP-adpated line / MIC of the ancestral strain) ([2]; AMP-adapted line PEX_1): 1.1 | Relative change in MIC (MIC of the AMP-adpated line / MIC of the ancestral strain) ([2]; AMP-adapted line PEX_4): 1.1 | Relative change in MIC (MIC of the AMP-adpated line / MIC of the ancestral strain) ([2]; AMP-adapted line PEX_5): 1 | Relative change in MIC (MIC of the AMP-adpated line / MIC of the ancestral strain) ([2]; AMP-adapted line PEX_6): 1.1 | Relative change in MIC (MIC of the AMP-adpated line / MIC of the ancestral strain) ([2]; AMP-adapted line PEX_7): 1 | Relative change in MIC (MIC of the AMP-adpated line / MIC of the ancestral strain) ([2]; AMP-adapted line PR39_1): >4.30 | Relative change in MIC (MIC of the AMP-adpated line / MIC of the ancestral strain) ([2]; AMP-adapted line PR39_2): 2.0736 | Relative change in MIC (MIC of the AMP-adpated line / MIC of the ancestral strain) ([2]; AMP-adapted line PR39_5): 4.3 | Relative change in MIC (MIC of the AMP-adpated line / MIC of the ancestral strain) ([2]; AMP-adapted line PR39_7): 1.9 | Relative change in MIC (MIC of the AMP-adpated line / MIC of the ancestral strain) ([2]; AMP-adapted line PR39_10): 2.986 | Relative change in MIC (MIC of the AMP-adpated line / MIC of the ancestral strain) ([2]; AMP-adapted line PROA_2): 1.2 | Relative change in MIC (MIC of the AMP-adpated line / MIC of the ancestral strain) ([2]; AMP-adapted line PROA_3): 1 | Relative change in MIC (MIC of the AMP-adpated line / MIC of the ancestral strain) ([2]; AMP-adapted line PROA_7): 1.1 | Relative change in MIC (MIC of the AMP-adpated line / MIC of the ancestral strain) ([2]; AMP-adapted line PROA_8): 1.1 | Relative change in MIC (MIC of the AMP-adpated line / MIC of the ancestral strain) ([2]; AMP-adapted line PROA_9): 1.1 | Relative change in MIC (MIC of the AMP-adpated line / MIC of the ancestral strain) ([2]; AMP-adapted line PXB_2): 1.32 | Relative change in MIC (MIC of the AMP-adpated line / MIC of the ancestral strain) ([2]; AMP-adapted line PXB_5): 1.1 | Relative change in MIC (MIC of the AMP-adpated line / MIC of the ancestral strain) ([2]; AMP-adapted line PXB_6): 1 | Relative change in MIC (MIC of the AMP-adpated line / MIC of the ancestral strain) ([2]; AMP-adapted line PXB_8): 1 | Relative change in MIC (MIC of the AMP-adpated line / MIC of the ancestral strain) ([2]; AMP-adapted line PXB_10): 0.915 | Overexpression phenotype, Literature [3]: Resistance^2

From paper PMC6915728 (Nature Communications, 2019)
